# Laboratory results taken from patent publication US20230312652A1, “NOVEL PEPTIDES AND USES THEREOF” (Aarhus Universitet, priority 2020, published 2023).
# Where a SMILES comes first, the peptide text is derived from it.
# Key:
# [1] = system: AMPK (T172) and Raptor (S792); assay: Phosphorylation of AMPK (T172) and Raptor (S792) in cortical neurons, western blotting; type: cell-based, mouse; details: 1 uM, 20 minutes
# Experimental: To assess the ability of peptide P1 to activate AMPK and subsequently inactivate the mTOR complex, mouse cortical neurons were isolated from p0 wild-type mice and seeded in a density of 250,000 per well in a 12-well tray. After 7 days in vitro the neurons were stimulated with P1 in neurobasal A media and incubated at 37° C. and 5% CO2 for 20 minutes. Hereafter, the neurons were lysed in lysis buffer containing DTT and cOmplete cocktail protease inhibitor. The phosphorylation of AMPK (T172) and Raptor (S792) was validated by western blotting normalized to beta-actin.
# [2] = system: primary hippocampal neurons; assay: Lysosomal acidification in wild-type hippocampal neurons, LysoSensor DND-189 live imaging; type: cell-based, mouse; details: 1 uM
# Experimental: Primary hippocampal neurons were seeded in an 8-well ibidi chamber pre-coated with Poly-I and laminin. 75.000 neurons were seeded pr. well. After 5 days in vitro the neurons were stimulated for 4, 8 or 24 hours with peptide P1 at 1 uM in neurobasal A with B27. After stimulation, the medium was changed to pre-warmed (37° C.) neurobasal A containing 1 uM of LysoSensor probe DND-189 (an acidotropic probes that accumulates in acidic organelles as the result of protonation) and incubated for 30 min. at 37° C. in a 5% C02 atmosphere. Hereafter, the media was changed to pre-warmed FluoroBrite Medium and the neurons were imaged in Olympus microscopy system. Pictures were taken of the lysosomes and processed using the ScanR imaging software to give fluorescence (intensity) of each lysosomal vesicle. The summed total intensity of all lysosomes was calculated and divided by the total number of neurons imaged yielding the total intensity of lysosomes per neuron. Student's t-test was used for statistical analysis.
# [3] = system: HTT in GM01650E fibroblasts; assay: Total HTT levels in fibroblasts from a healthy individual (GM01650E); type: cell-based, human; details: 1 uM, healthy cell line, 2-4 hours
# Experimental: GM04719 was seeded at 30,000-50,000 per well in a 96-well. The following day, the cells were treated with 1 uM of P1 and incubated at 37° C. and 5% CO2 at timepoints 0-24 hours. Hereafter, the cells were lysed in RIPA lysis buffer containing cOmplete cocktail protease inhibitor. Total Huntingtin levels were analysed using antibody mab2166 (Sigma-Aldrich) by western blotting and normalized to beta-actin. To determine, whether P1 also clears the healthy allele, we further assessed levels of total HTT in fibroblast derived from a healthy individual (GM01650E), bought from Coriell Biobank.
# [4] = system: pCREB, TFEB, LAMP1, p62/SQSTM1, PGRN, PGC1a; assay: Pathway engagement in striatum of wild-type mice after SC injection, western blotting; type: in vivo, mouse; details: 13 mg/kg SC
# Experimental: Wild-type mice were injected with 13 mg/kg of P1 (SEQ ID NO: 1) subcutaneously in 4.38 mM L-His, 140 mM NaCl, 0.2% Tween-20 and 1500 IU hyaluronidase (pH 6.15). The mice were sacrificed at timepoints between 2-8 hours after injection. Striatal tissue was isolated and the tissue was lysed using a TissueLyser in RIPA lysis buffer containing cOmplete and phosSTOP. Levels of pCREB, TFEB, downstream lysosomal gene products LAMP1, p62/SQSTM1, PGRN and mitochondrial master regulator PGC1a were validated by western blotting. All proteins were normalized to beta-actin levels.
# [5] = system: R6/2 mice (mouse model of Huntington's); assay: Brain weight and activity studies in R6/2 mice (open field, clasping, rotarod); type: in vivo; details: 13 mg/kg SC daily
# Experimental: The R6/2 mice were injected with a daily dose of 13 mg/kg of P1 subcutaneously in 4.38 mM L-His, 140 mM NaCl, 0.2% Tween-20 and 1500 IU hyaluronidase (pH 6.15) between 8 weeks to 12 weeks of age. At 12 weeks of age, mice were sacrificed and their brains removed and both hippocampus—cortex and striatal tissue was isolated and lysed in RIPA lysis buffer containing containing cOmplete and phosSTOP.
# Prior to treatment (8 weeks of age), the R6/2 mice were weighed and assessed for clasping and rotarod behavior before randomization to 4 cages of n=6 each (two cages pr treatment group). The experimenter remained blinded throughout the studies and data analysis. Motor coordination was measured by hind-limb clasping and rotarod between week 7-12.
# Clasping: Mice were once weekly assessed for clasping behavior. Mice were placed on the top grid of a cage and then held by the tail and lifted over the top of the homecage for 10 successive trials of 3 seconds with 3 second rest intervals
# Rotarod: Accelerating test—cylinder accelerates from 4 to 40 RPM in 5 minutes with linear speed progression. During the first week of training, mice undergo 3 trials per day for 3 consecutive days. During training sessions, mice receive “second changes” when falling from the rotarod. The following weeks, mice are tested on only one day for 3 consecutive trials. The mean latency to fall is used for data analysis.
# At 11 weeks of age, mice were subjected to an open field consisting of a 40×40 cm box with transparent Plexiglas walls of 50 cm height. Their behaviour was recorded using an automated tracking software and camera (Anymaze, Havard apparatus). Distance travelled and number of rears were recorded over a 20 min. period.
# Brain weight: At 12 weeks of age, mice were sacrificed and the entire brain was carefully extracted and weighed using a fine-scale weigh.
# [6] = system: GRN+/- hippocampal neurons; assay: Dendritic branching of GRN+/- hippocampal neurons; type: cell-based, mouse; details: 1 uM, 72 hours
# Experimental: To further validate the therapeutic potential of peptide P1 in frontotemporal dementia, its neurotrophic activity in GRN heterozygous hippocampal neurons isolated from p0 mice was investigated. Heterozygous loss of function mutations in the progranulin gene, GRN, cause frontotemporal dementia^68. To assess this, we measured the dendritic branching of GRN+/− hippocampal neurons in vitro following treatment. 10000 neurons were seeded per coverslip. After 24 hours the medium was changed to medium containing 1 uM of peptide P1. Hereafter, the cells were incubated at 37° C. for 72 hours before being fixed in 4% PFA for 20 minutes at room temperature. The neurons were subsequently stained against MAP2 to determine cell morphology. Images were taken using a confocal microscope and the neurite branches were analysed using Zen Image Processing (Carl Zeiss). The total number of branches were calculated per neuron. Student's t-test was used for statistical analysis.
# [7] = 11 weeks of age, 20 min, vs vehicle
structure (smiles),measurement,setting,value
"CSCC[C@@H]1NC(=O)[C@H](C(C)C)NC(=O)[C@H](CC(=O)O)NC(=O)[C@H](CCC(=O)O)NC(=O)[C@H](CCC(=O)O)NC(=O)[C@H](Cc2c[nH]cn2)NC(=O)[C@H](CCC(=O)O)NC(=O)[C@H](C(C)C)NC(=O)[C@@H]2CCCN2C(=O)[C@H](CCC(=O)O)NC(=O)[C@H]([C@@H](C)O)NC1=O [Peptide P1, [MTEPVEHEEDV]] (cyclo(MTEPVEHEEDV))",AMPK phosphorylation on T172,[1],activates AMPK
same,Raptor phosphorylation on S792,[1],inactivates Raptor
same,lysosomal intensity (lysosomal acidification),[2]; 4 hours,lysosomal intensity was increased
same,lysosomal intensity (lysosomal acidification),[2]; 8 hours,lysosomal intensity was increased
same,lysosomal intensity (lysosomal acidification),[2]; 24 hours,no difference
same,total HTT levels,[3],increasing the total HTT levels
same,pCREB in striatum,[4]; after 2 hours,significantly activates CREB
same,pCREB in striatum,[4]; at 4 hours,no significant effect
same,PGC1a in striatum,[4]; at 6 hours,significantly increased
same,PGRN in striatum,[4]; at 6 hours,significantly increased
same,p62/SQSTM1 levels in striatum (autophagic flux),[4]; at 8 hours following injection,significantly lowered
same,LAMP1 in striatum,[4]; between 2-4 hours,significantly increased
same,TFEB in striatum,[4]; between 2-4 hours,significantly increased
same,average increase of brain weight,"[5]; 8 to 12 weeks of age, at 12 weeks",14 mg
same,"motor function, clasping",[5]; week 8-12,tendency to improve motor functions
same,"motor function, rotarod",[5]; week 8-12,tendency to improve motor functions
same,"distance travelled, open field",[5]; [7],significantly higher
same,"rearing frequency, open field",[5]; [7],significantly higher
same,number of branches per neuron,[6],increased branching
